Experimental findings from BindingDB's records for doi:10.7270/Q2TX3CTT (Broad Institute, 2010) are described below.

Glycogen synthase kinase-3 beta, sequence (P49841 whole entry): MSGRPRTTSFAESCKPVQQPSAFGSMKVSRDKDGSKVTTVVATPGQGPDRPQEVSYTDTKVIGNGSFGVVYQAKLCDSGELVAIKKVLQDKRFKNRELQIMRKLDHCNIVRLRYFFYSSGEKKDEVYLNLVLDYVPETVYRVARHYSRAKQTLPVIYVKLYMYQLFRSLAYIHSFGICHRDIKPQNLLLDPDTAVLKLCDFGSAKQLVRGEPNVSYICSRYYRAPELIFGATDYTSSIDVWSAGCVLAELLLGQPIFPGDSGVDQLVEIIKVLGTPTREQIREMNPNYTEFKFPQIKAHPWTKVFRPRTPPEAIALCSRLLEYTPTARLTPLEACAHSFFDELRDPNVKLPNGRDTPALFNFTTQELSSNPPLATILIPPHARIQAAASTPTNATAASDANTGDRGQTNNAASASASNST

This experiment has as its target Glycogen synthase kinase-3 beta (Homo sapiens, UniProt P49841). Nature of the experiment: concentration-response blocking of human GSK3B – biochemical, luminescence, cell-free homogeneous, retest, dose response (AID 434954).
In turn, `COc1ccc(OC)c(Nc2nc(N(C)c3ccccc3)nc(N)c2[N+](=O)[O-])c1` [MLS001215240] gave an EC50 of over 300 µM.
For `CSc1nc(NCC(C)C)c2c3c(sc2n1)CN(C)CC3` [SMR000148856], the 50% effective concentration (EC50) was over 300 µM.
Take `O=C(CCc1ccccc1)Nc1cccc([N+](=O)[O-])c1` [MLS000856399]: the EC50 is over 300 µM.
For the compound `O=C(O)c1ccc(CN=Nc2ccc(C(F)(F)F)cn2)cc1`, the response was half-maximal at 20.4 µM (EC50).
Turning to `CCOC(=O)c1cnc2c(C)cccc2c1Nc1ccc(N2CCOCC2)cc1` [ethyl 8-methyl-4-[(4-morpholin-4-ylphenyl)amino]quinoline-3-carboxylate], the EC50 was over 300 µM.
Next, `Cc1ccc(C2c3c([nH]c(=S)[nH]c3=O)N=C3CC(C)(C)CC(=O)C32)cc1` (stereo not drawn) [8,8-dimethyl-5-(4-methylphenyl)-2-sulfanylidene-5,7,9,10-tetrahydro-1H-pyrimido[4,5-b]quinoline-4,6-dione]: over 300 µM; `Cc1ccc(CSc2ccc(-c3cccs3)nn2)cc1` [3-[(4-methylphenyl)methylsulfanyl]-6-thiophen-2-ylpyridazine]: over 300 µM; `O=c1c2c3c(sc2n2c(S)nnc2n1-c1ccccc1)CCC3` [MLS000779668]: 34 µM.
Consider `COc1cccc(C(=O)C(C#N)=C(SC)SC)c1` [MLS000859112], for which the EC50 is over 300 µM.
In turn, `O=C(O)Cc1sc(N[N-][CH+]c2ccc(-c3ccc(Cl)c([N+](=O)[O-])c3)o2)nc1O` [MLS000689975] came in with an EC50 of over 300 µM.
`N#Cc1c(N)nc(C(C#N)C#N)c(C#N)c1-c1ccccc1` had an EC50 of 19.2 µM.
Next, `O=C1CCCC2=Nc3ccccc3NC(c3cccs3)C12` (stereo not drawn) [6-thiophen-2-yl-5,6,8,9,10,11-hexahydrobenzo[b][1,4]benzodiazepin-7-one]: over 300 µM.
Next, `Cc1cccc(-n2c(=O)c3c4c(sc3n3c(=S)[nH]nc23)CCC4)c1` [1-mercapto-4-(3-methylphenyl)-7,8-dihydro-6H-cyclopenta[4,5]thieno[3,2-e][1,2,4]triazolo[4,3-a]pyrimidin-5(4H)-one]: 48.9 µM.
With `COc1ccc(-c2nn(-c3ccccc3)cc2CO)cc1` [MLS000534260], the EC50 was over 300 µM.
As to `COc1ccc2nc(NC(=O)CSC3=NCCS3)sc2c1` [SMR000012424], the EC50 is over 300 µM.
Next, `O=c1cc(-c2ccccc2)c2ccc(O)cc2o1` [7-Hydroxy-4-phenyl-chromen-2-one]: 24.6 µM.
In the case of `O=C1Nc2cc(C(=O)NCCCN3CCCC3)ccc2S/C1=C/c1ccccc1F` [(2E)-2-[(2-fluorophenyl)methylidene]-3-oxo-N-(3-pyrrolidin-1-ylpropyl)-4H-1,4-benzothiazine-6-carboxamide], the midpoint of the response, the EC50, lay at 6.99 µM.
`Cc1[nH]nc2c1C(c1ccc(N(C)C)cc1)C1C(=O)CC(C)(C)CC1=N2` (stereo not drawn) [SMR000343282] returned an EC50 of 28 µM.
For `CC(CC(=O)Nc1cc(C)ccn1)=NNC(=O)C(=O)NC(C)C` [N'-[[4-[(4-methylpyridin-2-yl)amino]-4-oxidanylidene-butan-2-ylidene]amino]-N-propan-2-yl-ethanediamide], the EC50 is over 300 µM.
Next, `O=C(Nc1cccc2c1C(=O)NC2=O)c1cccc(-n2c(O)ccc2O)c1`: over 300 µM.
Next, `N#Cc1c(N)nc(-c2ccccc2)nc1-c1ccccc1` [4-amino-2,6-diphenyl-5-pyrimidinecarbonitrile]: over 300 µM; `O=C(CCS(=O)(=O)c1ccccc1)Nc1ncc([N+](=O)[O-])s1` [SMR000605858]: over 300 µM; `CC(C)CC(=O)Nc1ccccc1-c1nnn(CC(=O)N2CCc3ccccc3C2)n1` [SMR000122537]: over 300 µM.
Compound `Fc1ccc(CNc2nc(-c3cccnc3)nc3ccccc23)cc1` [N-[(4-fluorophenyl)methyl]-2-(3-pyridinyl)-4-quinazolinamine] had an EC50 of over 300 µM.
In turn, `COc1ccc(C(=O)NC(=S)NC2CCCCC2)cc1` displayed an EC50 of over 300 µM.
The compound `COCCN(CC(=O)NCc1ccc(OC)cc1)C(=O)CCC(=O)Nc1nccs1` [MLS000032576] came in with an EC50 of over 300 µM.
`O=C(NC(=S)Nc1cccc2c(O)cccc12)c1ccco1` [N-[(5-hydroxynaphthalen-1-yl)carbamothioyl]furan-2-carboxamide] gave a 50% effective concentration (EC50) of 83.9 µM.
Next, `O=C(CN1C(=O)CCC1=O)Nc1ccc(Br)cc1` [N-(4-bromophenyl)-2-(2,5-dioxo-1-pyrrolidinyl)acetamide]: over 300 µM; `CCOC(=O)C1=C(C)NC(=O)C1=CNc1ccccc1` [SMR000168580]: 51.5 µM.
Compound `C=CCNC(=O)c1ccc(OC)cc1OC` displayed an EC50 of over 300 µM.
`COc1ccc(-c2nn(-c3ccccc3)cc2/C=C(\C#N)S(=O)(=O)c2ccccc2)cc1OC` [(E)-2-(benzenesulfonyl)-3-[3-(3,4-dimethoxyphenyl)-1-phenyl-4-pyrazolyl]-2-propenenitrile]: the EC50 is over 300 µM.
As for `CCSc1ccc2nnc(-c3cccc(F)c3)n2n1` [6-(ethylthio)-3-(3-fluorophenyl)-[1,2,4]triazolo[4,3-b]pyridazine], a half-maximal response (EC50) required 18.7 µM.
As for `Fc1ccc(-c2nnc(SCc3cccnc3)o2)cc1` [2-(4-fluorophenyl)-5-(pyridin-3-ylmethylsulfanyl)-1,3,4-oxadiazole], the EC50 amounted to 75.5 µM.
Next, `COc1cc(/C=C(\C#N)C(=O)c2c[nH]c3ccccc23)cc(OC)c1O` [(E)-3-(4-hydroxy-3,5-dimethoxyphenyl)-2-(1H-indole-3-carbonyl)prop-2-enenitrile]: 6.57 µM; `CCOc1ccc(NC(=O)COC(=O)c2ccc3c(c2)C(=O)N(CCc2ccccc2)C3=O)cc1` [SMR000261375]: over 300 µM; `c1ccc(Nc2nc(NCCN3CCOCC3)nc(Nc3ccccc3)n2)cc1`: over 300 µM.
With `CCC(N=C(S)NC1CCCCC1)c1ccccc1` (stereo not drawn) [SMR000678367], the EC50 is over 300 µM.
Next, `CC(C)c1ccc(C(=O)NCCCN2CCN(CCCNC(=O)c3ccc(C(C)C)cc3)CC2)cc1` [SMR000272164]: over 300 µM; `COCCn1c(SCC(=O)NCc2ccc(F)cc2)nc2ccccc21` [N-[(4-fluorophenyl)methyl]-2-[1-(2-methoxyethyl)benzimidazol-2-yl]sulfanylacetamide]: over 300 µM.
Next, `CN1CCN(CCC2Oc3cc([N+](=O)[O-])ccc3NC2=O)CC1` (stereo not drawn) [SMR000336558]: over 300 µM; `CC(C)N1C(=O)C(=CNCc2cccnc2)C(=O)NC1=S` [1-Isopropyl-5-[1-[(pyridin-3-ylmethyl)-amino]-meth-(E)-ylidene]-2-thioxo-dihydro-pyrimidine-4,6-dione]: over 300 µM; `C=CCNc1nc(N)c([N+](=O)[O-])c(NC2CCCCC2)n1` [4-N-cyclohexyl-5-nitro-2-N-prop-2-enylpyrimidine-2,4,6-triamine]: 5.45 µM.
`COCCNc1nc(N)c([N+](=O)[O-])c(NC2CCCCC2)n1` registered an EC50 of 5.35 µM. This EC50 and that of the compound before are within 1.5-fold of each other.
Turning to `CS(=O)(=O)N1CCN(c2cccc(Cl)n2)CC1` [MLS000594331], the EC50 was over 300 µM.
`Cc1ccnc(NC(=O)Cc2ccc([N+](=O)[O-])cc2)c1` [N-(4-methylpyridin-2-yl)-2-(4-nitrophenyl)ethanamide] registered an EC50 of 21.4 µM.
Next, `O=Cc1cn(CCC(=O)O)nc1-c1cccc2ccccc12` [3-(4-formyl-3-naphthalen-1-ylpyrazol-1-yl)propanoic acid]: over 300 µM; `CCN(CC)S(=O)(=O)c1ccc(O)c(C(=O)OCC(=O)Nc2cc(C)c(C)cc2[N+](=O)[O-])c1`: over 300 µM; `Cc1csc(NC(=O)CN2C(=O)c3ccccc3C2=O)c1C(N)=O` [2-[[2-(1,3-dioxo-2-isoindolyl)-1-oxoethyl]amino]-4-methyl-3-thiophenecarboxamide]: over 300 µM.
Next, `CCOc1cc(C=NN=C(N)N)ccc1OCc1ccc(Cl)cc1` [N''-{4-[(4-chlorobenzyl)oxy]-3-ethoxybenzylidene}carbonohydrazonic diamide]: over 300 µM; `O=[N+]([O-])c1cc(Cl)ccc1N1CCCCC1` [MLS000856435]: over 300 µM.
Next, `O=C(OCCCOC(=O)c1ccc(O)cc1)c1ccc(O)cc1` [4-hydroxybenzoic acid 3-[(4-hydroxyphenyl)-oxomethoxy]propyl ester]: 1.84 µM; `CN1CCc2c(sc3c2c(=O)n(-c2ccccc2)c2nncn32)C1` [SMR000045494]: over 300 µM; `CCCCC(=O)Nc1nc2c(OC)cc([N+](=O)[O-])cc2s1` [SMR000363192]: over 300 µM.
Take `CN1CCN(C(=O)Cn2ncc3c([nH]c4ccccc43)c2=O)CC1` [3-[2-(4-methylpiperazin-1-yl)-2-oxidanylidene-ethyl]-2H-pyridazino[4,5-b]indol-4-one]: the EC50 is over 300 µM.
Regarding `COc1cccc2cc(C(=O)N(C)C)c(=O)oc12` [8-methoxy-N,N-dimethyl-2-oxo-1-benzopyran-3-carboxamide], the EC50 is over 300 µM.
With `COC(=O)c1ccc(CSc2ccc3nnc(-c4ccc(F)cc4)n3n2)o1` [5-[[[3-(4-fluorophenyl)-[1,2,4]triazolo[4,3-b]pyridazin-6-yl]thio]methyl]-2-furancarboxylic acid methyl ester], the midpoint of the response, the EC50, lay at 4.59 µM.
Next, `COc1ccc2c(c1)-c1c(ssc1=S)C(C)(C)N2C(=O)CSC1=NCCS1` [2-(4,5-dihydrothiazol-2-ylthio)-1-(8-methoxy-4,4-dimethyl-1-sulfanylidene-5-dithiolo[3,4-c]quinolinyl)ethanone]: over 300 µM; `COC(=O)c1cc(S(=O)(=O)N2CCCC(C)C2)c[nH]1` (stereo not drawn): over 300 µM; `Cc1ccc([N+](=O)[O-])cc1/N=C1\C(=O)Nc2ccccc21`: over 300 µM.
In the case of `c1ccc(Nc2ncnc3[nH]ncc23)cc1`, the EC50 is 45.5 µM.
Next, `O=c1c(-c2ccccc2)c(-c2ccccc2)oc2cc(O)cc(O)c12`: 24.6 µM; `Nc1nc(Nc2cccc(F)c2)nc(N2CCOCC2)c1[N+](=O)[O-]` [2-N-(3-fluorophenyl)-6-morpholin-4-yl-5-nitropyrimidine-2,4-diamine]: over 300 µM.
`COc1cccc2c1cc1c(=O)n(CC(=O)N3CCCCCC3)nc(C)n12` [2-[2-(azepan-1-yl)-2-oxidanylidene-ethyl]-9-methoxy-4-methyl-[1,2,4]triazino[4,5-a]indol-1-one] came in with an EC50 of over 300 µM.

Broadly, the EC50 is the midpoint of the concentration-response curve. A high value points to a need for much substance.
